In PubChem BioAssay AID248 (DTP/NCI, 2004):
Values joined by “and” are separate entries in the source; they are usually repeats but may differ in a detail not shown here. Equal entries are not always repeated. Inconclusive results and toxic doses are left out. Rule as the data show it: active = T/C of 150% or more; inactive = T/C below 125%.

System: L1210 leukemia ip in BDF1 mice, survival T/C
Assay: NCI In Vivo Anticancer Drug Screen. Data for tumor model L1210 Leukemia (intraperitoneal) in B6D2F1 (BDF1) mice
Settings: endpoint: mean survival time, higher = longer survival
How it was run: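 Read-out is survival time, reported as the treated-group measurement over the vehicle-control measurement.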

[1] = dose: 100.0 mg/kg/injection, schedule: Q04DX002 (ip), vehicle: saline with Tween-80
[2] = dose: 200.0 mg/kg/injection, schedule: Q04DX002 (ip), vehicle: saline with Tween-80
[3] = dose: 100.0 mg/kg/injection, schedule: Q01DX009 (ip), vehicle: saline with Tween-80
[4] = dose: 400.0 mg/kg/injection, schedule: Q01DX009 (ip), vehicle: saline with Tween-80
[5] = dose: 100.0 mg/kg/injection, schedule: Q04DX002 (ip), vehicle: Klucel (hydroxypropylcellulose) (HPC)
[6] = dose: 100.0 mg/kg/injection, schedule: Q01DX009 (ip), vehicle: Klucel (hydroxypropylcellulose) (HPC)
[7] = dose: 200.0 mg/kg/injection, schedule: Q01DX009 (ip), vehicle: Klucel (hydroxypropylcellulose) (HPC)
[8] = dose: 100.0 mg/kg/injection, schedule: Q01DX001 (ip), vehicle: saline
[9] = dose: 200.0 mg/kg/injection, schedule: Q01DX001 (ip), vehicle: saline
[10] = dose: 400.0 mg/kg/injection, schedule: Q01DX001 (ip), vehicle: saline

Measured: T/C

Cc1n(C(C)C)c2c([n+]1C)C(=O)c1ccccc1C2=O
inactive: dose: 0.39 mg/kg/injection, schedule: Q01DX009 (ip), vehicle: saline 106 % of control | dose: 0.78 mg/kg/injection, schedule: Q01DX009 (ip), vehicle: saline 98 % of control | dose: 1.56 mg/kg/injection, schedule: Q01DX009 (ip), vehicle: saline 101 % of control | dose: 1.56 mg/kg/injection, schedule: Q04DX003 (ip), vehicle: acetone 95 % of control | dose: 2.33 mg/kg/injection, schedule: Q01DX009 (ip), vehicle: acetone 88 % of control | dose: 3.54 mg/kg/injection, schedule: Q01DX009 (ip), vehicle: acetone 92 % of control

Cc1ccc(S(=O)(=O)NNC(=O)c2ccc(-c3ccc[nH]3)[nH]2)cc1
inactive: dose: 75.0 mg/kg/injection, schedule: Q01DX001 (ip), vehicle: saline 93 % of control | dose: 150.0 mg/kg/injection, schedule: Q01DX001 (ip), vehicle: saline 92 % of control | dose: 300.0 mg/kg/injection, schedule: Q01DX001 (ip), vehicle: saline 98 % of control

Cc1ccc(S(=O)(=O)C[n+]2ccccc2)cc1
inactive: [1] 98 % of control | [2] 94 % of control

O=c1cc(CN2CCN(CCO)CC2)[nH]c(=O)[nH]1
inactive: dose: 100.0 mg/kg/injection, schedule: Q04DX003 (ip), vehicle: saline 101 % of control | dose: 200.0 mg/kg/injection, schedule: Q04DX003 (ip), vehicle: saline 95 % of control | dose: 400.0 mg/kg/injection, schedule: Q04DX003 (ip), vehicle: saline 95 % of control

CCOc1ccccc1/C=C1\C=Nc2ccccc21
inactive: dose: 50.0 mg/kg/injection, schedule: Q01DX009 (ip), vehicle: carboxymethylcellulose (CMC) 92 % of control and 101 % of control | dose: 50.0 mg/kg/injection, schedule: Q04DX003 (ip), vehicle: carboxymethylcellulose (CMC) 96 % of control | dose: 100.0 mg/kg/injection, schedule: Q01DX009 (ip), vehicle: carboxymethylcellulose (CMC) 92 % of control and 93 % of control | dose: 100.0 mg/kg/injection, schedule: Q04DX002 (ip), vehicle: carboxymethylcellulose (CMC) 96 % of control and 99 % of control | dose: 100.0 mg/kg/injection, schedule: Q04DX003 (ip), vehicle: carboxymethylcellulose (CMC) 98 % of control | dose: 200.0 mg/kg/injection, schedule: Q01DX009 (ip), vehicle: carboxymethylcellulose (CMC) 89 % of control and 90 % of control | dose: 200.0 mg/kg/injection, schedule: Q04DX002 (ip), vehicle: carboxymethylcellulose (CMC) 89 % of control and 91 % of control | dose: 200.0 mg/kg/injection, schedule: Q04DX003 (ip), vehicle: carboxymethylcellulose (CMC) 100 % of control | dose: 400.0 mg/kg/injection, schedule: Q04DX002 (ip), vehicle: carboxymethylcellulose (CMC) 89 % of control

COc1ccc(NC(=O)C(CC(C(C)=O)C(=O)Nc2ccc(OC)cc2)C(C)=O)cc1 (configuration not stated)
inactive: [3] 87 % of control | [4] 88 % of control

COc1ccc(OCCOC(=O)Nc2cccc(C(F)(F)F)c2)cc1
inactive: [3] 109 % of control | dose: 200.0 mg/kg/injection, schedule: Q01DX009 (ip), vehicle: saline with Tween-80 96 % of control | [4] 91 % of control

O=C(COc1ccc(Cl)cc1Cl)Nc1ccc2ccccc2c1S(=O)(=O)O
inactive: dose: 25.0 mg/kg/injection, schedule: Q04DX002 (ip), vehicle: Klucel (hydroxypropylcellulose) (HPC) 112 % of control | dose: 50.0 mg/kg/injection, schedule: Q04DX002 (ip), vehicle: Klucel (hydroxypropylcellulose) (HPC) 98 % of control | [5] 94 % of control

Oc1cccc2c(NC(=S)Nc3ccccc3)cccc12
inactive: [6] 101 % of control | [5] 96 % of control | [7] 101 % of control | dose: 200.0 mg/kg/injection, schedule: Q04DX002 (ip), vehicle: Klucel (hydroxypropylcellulose) (HPC) 104 % of control | dose: 400.0 mg/kg/injection, schedule: Q04DX002 (ip), vehicle: Klucel (hydroxypropylcellulose) (HPC) 100 % of control

O=C1C(c2ccccc2)=C(N2CCCCC2)C(=O)C(c2ccccc2)=C1N1CCCCC1
inactive: dose: 100.0 mg/kg/injection, schedule: Q01DX001 (ip), vehicle: carboxymethylcellulose (CMC) 90 % of control | dose: 200.0 mg/kg/injection, schedule: Q01DX001 (ip), vehicle: carboxymethylcellulose (CMC) 90 % of control | dose: 400.0 mg/kg/injection, schedule: Q01DX001 (ip), vehicle: carboxymethylcellulose (CMC) 94 % of control

CCCCCc1ccc(C(=O)O)cc1
inactive: dose: 25.0 mg/kg/injection, schedule: Q01DX009 (ip), vehicle: saline with Tween-80 103 % of control | dose: 25.0 mg/kg/injection, schedule: Q04DX003 (ip), vehicle: saline with Tween-80 106 % of control | dose: 50.0 mg/kg/injection, schedule: Q01DX009 (ip), vehicle: saline with Tween-80 98 % of control | dose: 50.0 mg/kg/injection, schedule: Q04DX003 (ip), vehicle: saline with Tween-80 101 % of control | [3] 97 % of control | dose: 100.0 mg/kg/injection, schedule: Q04DX003 (ip), vehicle: saline with Tween-80 98 % of control and 102 % of control

O=Nc1ccc(O)c(=O)cc1
inactive: dose: 1.0 mg/kg/injection, schedule: Q01DX009 (ip), vehicle: saline 90 % of control | dose: 1.0 mg/kg/injection, schedule: Q04DX003 (ip), vehicle: saline 100 % of control | dose: 2.0 mg/kg/injection, schedule: Q01DX009 (ip), vehicle: saline 90 % of control | dose: 2.0 mg/kg/injection, schedule: Q04DX003 (ip), vehicle: saline 97 % of control | dose: 4.0 mg/kg/injection, schedule: Q01DX009 (ip), vehicle: saline 97 % of control | dose: 4.0 mg/kg/injection, schedule: Q04DX003 (ip), vehicle: saline 109 % of control

Nc1ncnc2nc(-c3ccc(OCCCOc4ccccc4)c(Cl)c3)[nH]c12
inactive: dose: 6.25 mg/kg/injection, schedule: Q01DX001 (ip), vehicle: saline with Tween-80 94 % of control | dose: 12.5 mg/kg/injection, schedule: Q01DX001 (ip), vehicle: saline with Tween-80 89 % of control | dose: 50.0 mg/kg/injection, schedule: Q01DX001 (ip), vehicle: saline with Tween-80 88 % of control

O=[N+]([O-])c1c(Br)ncn1Cc1ccccc1
inactive: dose: 100.0 mg/kg/injection, schedule: Q04DX003 (ip), vehicle: acetone 99 % of control | dose: 200.0 mg/kg/injection, schedule: Q04DX003 (ip), vehicle: acetone 96 % of control

CCCCNC(=O)CSc1cc(Cl)c(Cl)cc1Cl
inactive: dose: 100.0 mg/kg/injection, schedule: Q01DX001 (ip), vehicle: saline with Tween-80 91 % of control | dose: 200.0 mg/kg/injection, schedule: Q01DX001 (ip), vehicle: saline with Tween-80 91 % of control | dose: 400.0 mg/kg/injection, schedule: Q01DX001 (ip), vehicle: saline with Tween-80 95 % of control

C=C(N1CCCCC1)N1CCCCC1
inactive: [1] 100 % of control | [2] 96 % of control | dose: 400.0 mg/kg/injection, schedule: Q04DX002 (ip), vehicle: saline with Tween-80 116 % of control

CC(=O)OCC1C(OC(C)=O)C(OC(C)=O)C(OC(C)=O)N1C(C)=O (configuration not stated)
inactive: dose: 50.0 mg/kg/injection, schedule: Q01DX001 (ip), vehicle: saline 98 % of control | [8] 95 % of control | [9] 98 % of control | [10] 98 % of control

COc1cccc(OC)c1OC(=O)Nc1cccc(C(F)(F)F)c1
inactive: [6] 101 % of control | [7] 98 % of control | dose: 400.0 mg/kg/injection, schedule: Q01DX009 (ip), vehicle: Klucel (hydroxypropylcellulose) (HPC) 90 % of control

CCCSc1ncnc2c1nc(C)n2CO
inactive: [8] 114 % of control | [9] 114 % of control | [10] 121 % of control
